Consider four compounds from ChEMBL document CHEMBL1136210, “Bone-targeted pyrido[2,3-d]pyrimidin-7-ones: potent inhibitors of Src tyrosine kinase as novel antiresorptive agents” (Bioorg Med Chem Lett, 2003).

The species named for assay [1] is Oryctolagus cuniculus. The assay is described as follows: Inhibition of rabbit-osteoclast mediated resorption of dentine slices.
A short description of assay [2]: Compound was tested for toxicity by the presence of tartrate resistant acid phosphatase (TRAP)-positive cell; Normal. In kind it is functional.
Assay [3] addresses Proto-oncogene tyrosine-protein kinase Src (Homo sapiens, UniProt P12931). Kind of assay: Inhibition of Src protein tyrosine kinase.

Usually IC50 stands for the midpoint of a concentration-inhibition curve. A low value points to higher potency.

Chain of Proto-oncogene tyrosine-protein kinase Src (P12931 2-536 limits assumed): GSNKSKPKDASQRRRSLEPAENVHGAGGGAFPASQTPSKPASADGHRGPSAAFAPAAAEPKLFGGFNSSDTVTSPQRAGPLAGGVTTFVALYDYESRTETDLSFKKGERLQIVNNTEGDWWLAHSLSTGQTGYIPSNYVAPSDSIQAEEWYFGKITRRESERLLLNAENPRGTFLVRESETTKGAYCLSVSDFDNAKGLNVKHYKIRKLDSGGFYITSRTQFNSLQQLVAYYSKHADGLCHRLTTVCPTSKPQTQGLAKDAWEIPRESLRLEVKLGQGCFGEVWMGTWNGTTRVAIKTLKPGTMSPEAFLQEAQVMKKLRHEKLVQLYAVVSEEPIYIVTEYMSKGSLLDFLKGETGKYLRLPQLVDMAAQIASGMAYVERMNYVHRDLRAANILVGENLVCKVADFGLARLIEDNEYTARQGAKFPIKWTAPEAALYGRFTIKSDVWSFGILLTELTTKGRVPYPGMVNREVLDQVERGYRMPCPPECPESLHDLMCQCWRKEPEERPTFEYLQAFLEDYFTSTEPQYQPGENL

`Cn1c(=O)c(-c2c(Cl)cccc2Cl)cc2cnc(Nc3ccc(P(=O)(O)CP(=O)(O)O)cc3)nc21` yielded an IC50 in assay [1] of 3000 nM. Besides, the TRAP staining entry in assay [2] was “Not toxic”.

In assay [1], `Cn1c(=O)c(-c2c(Cl)cccc2Cl)cc2cnc(Nc3cccc(P(=O)(O)CP(=O)(O)O)c3)nc21` returned an IC50 of 4000 nM. In addition, the TRAP staining entry in assay [2] was “Not toxic”.

`Cn1c(=O)c(-c2c(Cl)cccc2Cl)cc2cnc(Nc3ccccc3)nc21`: inhibition in assay [3] was half-maximal at 16 nM (IC50).

As for `CN(C)CCCn1c(=O)c(-c2c(Cl)cccc2Cl)cc2cnc(Nc3ccc(P(=O)(O)CP(=O)(O)O)cc3)nc21`, the midpoint of inhibition in assay [1], the IC50, lay at 800 nM. Also, the TRAP staining result in assay [2] was “Not toxic”.
